Holding throughout (assay): combination Emax (second highest fraction inhibited in the dose matrix, 72 h); higher = more inhibition; extreme values may be limits of the assay
The subject of test [1] is CAL-39 (Other Solid Carcinomas). The essentials:
(§1)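 After 24 hours at 37°C and 5% CO2 in 1536-well plates, cells in DMEM/F12 or RPMI plus 10% FBS received two-drug dose matrices for 72 hours. Viability came from CellTiter-Glo 2.0 luminescence and was scaled as inhibition, anchored at 0 by vehicle wells and at 1 by blank wells. Combination Emax is taken as the second-highest inhibition in the matrix, and Bliss excess as the observed combination effect less EA + EB − EA·EB, with EA and EB the single-agent effects.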

The subject of another test is SK-MEL-1 (Melanoma). The method in brief: as §1
The next test concerns H4 (Low Grade Glioma). The method in brief: as §1
In another test the test system is HuO9 (Osteosarcoma). The essentials:
as §1

Test [2] concerns RCC10RGB (Kidney Carcinoma). The essentials:
as §1

Test [3] relates to SW948 (Colorectal Carcinoma). The method in brief: as §1
Test [4] concerns SW48 (Colorectal Carcinoma). The method in brief: as §1
A further test deals with MSTO-211H (Mesothelioma). The essentials: as §1
The next test has as its system MCF7 (Breast Carcinoma). The method in brief: as §1
Test [5] deals with SKN-3 (Head and Neck Carcinoma). The method in brief:
as §1

Test [6] concerns HCT-116 (Colorectal Carcinoma). The method in brief: as §1
The test system of test [7] is HCC-827 (Lung Adenocarcinoma). The method in brief:
as §1

For test [8], the system named is NCI-H1688 (Small Cell Lung Carcinoma). The essentials: as §1
The test system of test [9] is EFM-192A (Breast Carcinoma). The method in brief:
as §1

Test [10] concerns NOMO-1 (Acute Myeloid Leukemia). The essentials: as §1
Test [11] concerns D-283MED (Other Solid Carcinomas). The method in brief:
as §1

Test [12] has as its system SLVL (B-Cell Non-Hodgkin's Lymphoma). The method in brief: as §1
For test [13], the system named is SK-LMS-1 (Other Solid Carcinomas). The method in brief: as §1
The test system of another test is Saos-2 (Osteosarcoma). The method in brief:
as §1

Take `Cn1cnc2c(F)c(Nc3ccc(Br)cc3Cl)c(C(=O)NOCCO)cc21` [Selumetinib] + CC(C)n1c(=O)n(C)c2cnc3cc(F)c(-c4ccc(OCCCN5CCCCC5)nc4)cc3c21 [AZD1390] (first compound max 10 µM, 7x7, partner max 0.3 µM): the “combination Emax” value stood at 0.643 in [1]; 0.838 in the test on SK-MEL-1 (Melanoma); 0.13 in the test on H4 (Low Grade Glioma); 0.626 in the test with HuO9 (Osteosarcoma); 0.437 in test [2]; 0.698 in test [3]. Besides, the “combination Emax” value stood at 0.38 in test [4]; 0.162 in the test on MSTO-211H (Mesothelioma); 0.084 in the test with MCF7 (Breast Carcinoma); 0.228 in test [5]; 0.664 in [6]; 0.195 in test [7]. In addition, the “combination Emax” value in test [8] stood at 0.223; in test [9], 0.103; in test [10], 0.767; in test [11], 0.148; in test [12], 0.448; in test [13], 0.264. Also, the “combination Emax” value in the test with Saos-2 (Osteosarcoma) came out at 0.153.

Take `CC(=O)c1c(C)c2cnc(Nc3ccc(N4CCNCC4)cn3)nc2n(C2CCCC2)c1=O` [Palbociclib] + CC1(C)CCC(CN2CCN(c3ccc(C(=O)NS(=O)(=O)c4ccc(NCC5CCOCC5)c([N+](=O)[O-])c4)c(Oc4cnc5[nH]ccc5c4)c3)CC2)=C(c2ccc(Cl)cc2)C1 [Venetoclax] (first compound max 10 µM, 7x7, partner max 1 µM): the “combination Emax” value is 0.255 in test [1]; 0.242 in the test on SK-MEL-1 (Melanoma); 0.597 in the test with H4 (Low Grade Glioma); 0.406 in the test with HuO9 (Osteosarcoma); 0.476 in test [2]; 0.382 in [3]. Moreover, the “combination Emax” value in test [4] is 0.313; in the test on MSTO-211H (Mesothelioma), 0.0513; in the test on MCF7 (Breast Carcinoma), 0.339; in test [5], 0; in test [6], 0.559; in [7], 0.168. Moreover, the “combination Emax” value was found to be 0.0922 in [8]; 0.165 in test [9]; 0.596 in test [10]; 0.668 in test [11]; 0.325 in test [12]; 0.147 in test [13]. For the same compound, the “combination Emax” value with Saos-2 (Osteosarcoma) was found to be 0.197.

On to `Cn1cnc2c(F)c(Nc3ccc(Br)cc3Cl)c(C(=O)NOCCO)cc21` [Selumetinib] + CCN(CCO)CCCOc1ccc2c(Nc3cc(CC(=O)Nc4cccc(F)c4)[nH]n3)ncnc2c1 [AZD2811] (first compound max 10 µM, 7x7, partner max 1 µM), for which the “combination Emax” value in test [1] was 0.72; in the test on SK-MEL-1 (Melanoma) it was 0.863; in the test with H4 (Low Grade Glioma), 0.306; with HuO9 (Osteosarcoma) it was 0.242; in test [2], 0.505; in [3], 0.785. The “combination Emax” value in test [4] turned out to be 0.989; with MSTO-211H (Mesothelioma), 0.318; with MCF7 (Breast Carcinoma) it was 0.191; in test [5], 0.27; in test [6], 0.792; in test [7], 0.277. The “combination Emax” value in test [8] turned out to be 0.169; in [9], 0.167; in test [10] it was 0.988; in test [11] it was 0.476; in [12], 0.639; in test [13] it was 0.334. Also, the “combination Emax” value in the test on Saos-2 (Osteosarcoma) stood at 0.472.

Regarding `COc1nnc2ccc(N3CCC(c4ccc(OCCN5CCN(C)C(=O)[C@H]5C)cc4)CC3)nn12` [AZD5153] + Cn1cnc2c(F)c(Nc3ccc(Br)cc3Cl)c(C(=O)NOCCO)cc21 [Selumetinib] (first compound max 1 µM, 7x7, partner max 10 µM), the “combination Emax” value is 0.827 in test [1]; 0.983 in the test with SK-MEL-1 (Melanoma); 0.699 in the test with H4 (Low Grade Glioma); 0.706 with HuO9 (Osteosarcoma); 0.574 in [2]; 0.752 in test [3]. Also, the “combination Emax” value was 0.786 in [4]; 0.41 with MSTO-211H (Mesothelioma); 0.704 with MCF7 (Breast Carcinoma); 0.531 in [5]; 0.866 in [6]; 0.375 in [7]. Further, the “combination Emax” value in test [8] amounted to 0.384; in test [9], 0.304; in test [10] it was 1; in test [11] it was 0.849; in test [12], 0.738; in test [13], 0.666. In addition, the “combination Emax” value with Saos-2 (Osteosarcoma) came out at 0.516.

Regarding `NC1(C(=O)N[C@@H](CCO)c2ccc(Cl)cc2)CCN(c2ncnc3[nH]ccc23)CC1` [Capivasertib] + CCN(CCO)CCCOc1ccc2c(Nc3cc(CC(=O)Nc4cccc(F)c4)[nH]n3)ncnc2c1 [AZD2811] (first compound max 10 µM, 7x7, partner max 1 µM), the “combination Emax” value was found to be 0.55 in test [1]; 0.292 in the test on SK-MEL-1 (Melanoma); 0.58 with H4 (Low Grade Glioma); 0.464 in the test on HuO9 (Osteosarcoma); 0.292 in test [2]; 0.769 in [3]. Moreover, the “combination Emax” value in test [4] turned out to be 0.983; with MSTO-211H (Mesothelioma) it was 0.379; with MCF7 (Breast Carcinoma), 0.639; in [5] it was 0.23; in [6] it was 0.587; in test [7] it was 0.35. The “combination Emax” value in test [8] was 0.309; in [9], 0.449; in test [10] it was 0.735; in test [11] it was 0.737; in [12] it was 0.667; in [13] it was 0.457. The “combination Emax” value in the test on Saos-2 (Osteosarcoma) came to 0.586.

As for `COc1nnc2ccc(N3CCC(c4ccc(OCCN5CCN(C)C(=O)[C@H]5C)cc4)CC3)nn12` [AZD5153] + C=CCn1c(=O)c2cnc(Nc3ccc(N4CCN(C)CC4)cc3)nc2n1-c1cccc(C(C)(C)O)n1 [AZD1775] (first compound max 1 µM, partner max 1 µM), the “combination Emax” value was 0.788 in test [1]; 0.568 with SK-MEL-1 (Melanoma); 0.884 in the test on H4 (Low Grade Glioma); 0.919 in the test on HuO9 (Osteosarcoma); 0.686 in test [2]; 0.655 in [3]. Further, the “combination Emax” value was 0.66 in test [4]; 0.255 with MSTO-211H (Mesothelioma); 0.684 with MCF7 (Breast Carcinoma); 0.634 in [5]; 0.788 in test [6]; 0.583 in [7]. Moreover, the “combination Emax” value came out at 0.707 in test [8]; 0.391 in test [9]; 0.983 in [10]; 0.988 in test [11]; 0.738 in [12]; 0.592 in test [13]. Besides, the “combination Emax” value in the test with Saos-2 (Osteosarcoma) stood at 0.854.

Take `NC1(C(=O)N[C@@H](CCO)c2ccc(Cl)cc2)CCN(c2ncnc3[nH]ccc23)CC1` [Capivasertib] + COc1nnc2ccc(N3CCC(c4ccc(OCCN5CCN(C)C(=O)[C@H]5C)cc4)CC3)nn12 [AZD5153] (first compound max 10 µM, 7x7, partner max 1 µM): the “combination Emax” value in test [1] was 0.787; in the test with SK-MEL-1 (Melanoma) it was 0.681; in the test with H4 (Low Grade Glioma), 0.744; with HuO9 (Osteosarcoma) it was 0.841; in test [2], 0.518; in test [3], 0.699. Also, the “combination Emax” value in test [4] was found to be 0.828; in the test with MSTO-211H (Mesothelioma) it was 0.258; in the test on MCF7 (Breast Carcinoma) it was 0.754; in test [5], 0.581; in [6] it was 0.813; in test [7] it was 0.481. In addition, the “combination Emax” value is 0.406 in [8]; 0.504 in test [9]; 1 in test [10]; 0.771 in test [11]; 0.764 in test [12]; 0.609 in [13]. In the test with Saos-2 (Osteosarcoma), the “combination Emax” value is 0.554.

The values are drawn from the supplement of paper PMC11061612.
